Measured values: patent US12083137B2, “Triazole bisphosphonate geranylgeranyl diphosphate synthase inhibitors” (BOARD OF REGENTS OF THE UNIVERSITY OF NEBRASKA, priority 2017, dated 2024)
Like-named read-outs stand apart in the source and are kept apart here.

Key:
Recombinant GGDPS = Recombinant GGDPS (Homo sapiens (Human), UniProt O95749); assay: GGDPS enzyme assay; format: biochemical; conditions: for Selectivity for GGDPS to FDPS: ratio FDPS IC50 / GGDPS IC50
Description: (§1) FIG. 9 GGDPS and FDPS enzyme assay data for compounds 19, 20, and 21. Each assay was performed in three independent experiments (R1, R2, R3) and each compound was tested in duplicate at each concentration.
(§2) Each assay was performed in three independent experiments (R1, R2, R3) and each compound was tested in duplicate at each concentration.
GGDPS Enzyme assay (FIG. 9, 10, 11): Recombinant GGDPS was obtained from MyBioSource (San Diego, CA). Recombinant enzyme (20 nM GGDPS) was incubated with assay buffer (50 mM Tris-HCl, pH 7.7, 20 mM MgCl2, 5 mM TCEP, 5 μg/mL BSA) and test compounds for 10 minutes at room temperature. The reaction was initiated by the addition of 10 μM FPP and 10 μM [^14C]-IPP and was carried out at 37° C. for 30 minutes. The reaction was stopped by the addition of saturated NaCl. Radiolabeled GGPP was extracted with n-butanol and counted via liquid scintillation counting. CompuSyn software (ComboSyn, Inc.) was used to analyze the concentration response curves and determine the IC50 values.

FDPS = FDPS (Homo sapiens (Human), UniProt P14324); assay: FDPS enzyme assay; format: biochemical
Description: as §1, §2

RPMI-8226 cells [1] = assay: Cellular protein geranylgeranylation: Rap1a immunoblot plus intracellular lambda light chain ELISA; format: cell-based, Human; conditions: 48 h; for Cellular LEC (lowest effective concentration): lowest concentration with visible unmodified Rap1a band and statistically significant increase in intracellular lambda light chain; for relative cellular activity (comparison in words): myeloma cells
Description: (§3) RPMI-8226 cells were incubated for 48 h in the presence or absence of lovastatin (Lov, 10 μM) or varying concentrations of the test compounds. Intracellular lambda light chain concentrations were determined via ELISA. Data are expressed as a percentage of control (mean±SD, n=3). The * denotes p<0.05 per unpaired two-tailed t-test.
The impact of substituents at the α-carbon of the compounds disclosed herein on cellular activity was assessed in myeloma cells. Impairment of cellular protein geranylgeranylation was determined via two methods: 1) ELISA for intracellular lambda light chain which is a marker for disruption of Rab GTPase geranyl-geranylation (FIGS. 1, 3, 5, 7) and 2) immunoblot analysis for unmodified Rap1a (a substrate of GGTase I) (FIGS. 2, 4, 6, 8). Lovastatin, an HMG-CoA reductase inhibitor, was included as a positive control. […] Next, the impact of the olefin stereochemistry on biological activity was determined.
Immunoblot analysis (FIG. 2, 4, 6, 8): Multiple myeloma cells were incubated (37° C. and 5% CO2) with test compounds for 48 hours in RPMI-1640 media containing 10% fetal bovine serum and penicillin-streptomycin. Whole cell lysate was obtained using RIPA buffer (0.15 M NaCl, 1% sodium deoxycholate, 0.1% SODS, 1% Triton (v/v) X-100, 0.05 M Tris HCl) containing protease and phosphatase inhibitors. Protein content was determined using the bicinchoninic acid (BCA) method (Pierce Chemical, Rockford, IL). Equivalent amounts of cell lysate were resolved by SODS-PAGE, transferred to polyvinylidene difluoride membrane, probed with the appropriate primary antibodies, and detected using HRP-linked secondary antibodies and Bio-Rad Clarity ECL Substrate Western blotting reagents per manufacturer's protocols.
(§4) Lambda light chain ELISA (FIG. 1, 3, 5, 7): Human lambda light chain kit (Bethyl Laboratories, Montgomery, TX) was used to quantify intracellular monoclonal protein levels of whole cell lysate. Lambda light chain levels were normalized to total protein levels (as determined by BCA).

RPMI-8226 cells [2] = assay: Lambda light chain ELISA (intracellular lambda light chain, marker of Rab GTPase geranylgeranylation disruption); format: cell-based, Human; conditions: 48 h
Description: as §3, §4

[3] = 20 nM recombinant GGDPS, 10 μM FPP, 10 μM [14C]-IPP, 37° C. 30 minutes, read-out: GGDPS IC50

Chain of Recombinant GGDPS (O95749 whole entry): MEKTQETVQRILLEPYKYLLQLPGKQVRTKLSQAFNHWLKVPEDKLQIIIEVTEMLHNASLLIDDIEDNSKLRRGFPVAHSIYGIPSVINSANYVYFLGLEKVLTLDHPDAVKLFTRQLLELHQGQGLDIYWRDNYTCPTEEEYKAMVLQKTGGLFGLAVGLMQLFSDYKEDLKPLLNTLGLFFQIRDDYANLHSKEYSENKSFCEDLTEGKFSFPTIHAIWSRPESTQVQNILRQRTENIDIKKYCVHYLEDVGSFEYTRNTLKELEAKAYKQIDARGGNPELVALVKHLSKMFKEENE
Chain of FDPS (P14324 whole entry, species assumed): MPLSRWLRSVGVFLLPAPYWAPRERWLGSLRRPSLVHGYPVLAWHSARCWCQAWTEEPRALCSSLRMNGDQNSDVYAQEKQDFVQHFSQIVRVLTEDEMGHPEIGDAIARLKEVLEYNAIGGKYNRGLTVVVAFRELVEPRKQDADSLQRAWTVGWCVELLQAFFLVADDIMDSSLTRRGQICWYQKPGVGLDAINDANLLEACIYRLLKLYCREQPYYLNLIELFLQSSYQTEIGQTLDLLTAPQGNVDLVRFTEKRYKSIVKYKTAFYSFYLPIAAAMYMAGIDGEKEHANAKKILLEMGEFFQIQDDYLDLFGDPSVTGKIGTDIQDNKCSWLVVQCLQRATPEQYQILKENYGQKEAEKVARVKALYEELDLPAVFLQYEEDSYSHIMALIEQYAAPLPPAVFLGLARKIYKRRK

IC50 (Recombinant GGDPS; [3]) [nM] | IC50 (FDPS; read-out: FDPS IC50) [µM] | specificity (selectivity) for GGDPS over FDPS (Recombinant GGDPS) | Compound | IC50 (Recombinant GGDPS) [nM] | relative GGDPS inhibitory activity in enzymatic assays (comparison in words) (Recombinant GGDPS) | Selectivity for GGDPS to FDPS (Recombinant GGDPS) | IC50 (FDPS) [µM] | Cellular LEC (lowest effective concentration) (RPMI-8226 cells [1]) [µM] | relative cellular activity (comparison in words) (RPMI-8226 cells [1]) | cellular potency of Z-isomer relative to the E-isomer 21 (RPMI-8226 cells [2]; FIG. 5, RPMI-8226 cells) | improvement in cellular activity of POM-version versus corresponding salt 17 (RPMI-8226 cells [2]; FIG. 7, RPMI-8226 cells)
 |  |  | CC(C)=CCCC(C)=CCCn1cc(CC(C)(P(=O)([O-])[O-])P(=O)([O-])[O-])nn1.[Na+].[Na+].[Na+].[Na+] [Compound 16, Sodium (1-(1-(4,8-dimethylnona-3,7-dien-1-yl)-1H-1,2,3-triazol-4-yl)propane-2,2-diyl)bis(phosphonate)] | 1270 ± 303 | very similar to the individual isomers | 49 | 62.2 ± 7.22 | 0.1 |  |  | 
 |  |  | CC(C)=CCC/C(C)=C\CCn1cc(CC(C)(P(=O)([O-])[O-])P(=O)([O-])[O-])nn1.[Na+].[Na+].[Na+].[Na+] [Compound 17, Sodium (Z)-(1-(1-(4,8-dimethylnona-3,7-dien-1-yl)-1H-1,2,3-triazol-4-yl)propane-2,2-diyl)bis(phosphonate)] | 920 ± 89 |  | >108 | > 100 | 0.1 |  |  | 
 |  |  | CC(C)=CCC/C(C)=C/CCn1cc(CC(C)(P(=O)([O-])[O-])P(=O)([O-])[O-])nn1.[Na+].[Na+].[Na+].[Na+] [Compound 18, Sodium (E)-(1-(1-(4,8-dimethylnona-3,7-dien-1-yl)-1H-1,2,3-triazol-4-yl)propane-2,2-diyl)bis(phosphonate)] | 20500 ± 2300 |  | 3.5 | 71.4 ± 24.2 | 5.0 | slightly more potent than the Z-isomer |  | 
100 ± 19 | 24.1 ± 3.15 |  | CC(C)=CCCC(C)=CCn1cc(CC(C)(P(=O)([O-])[O-])P(=O)([O-])[O-])nn1.[Na+].[Na+].[Na+].[Na+] [Compound 19, Sodium (1-(1-(3,7-dimethylocta-2,6-dien-1-yl)-1H-1,2,3-triazol-4-yl)propane-2,2-diyl)bis(phosphonate)] |  | more potent than its corresponding non-methylated analogue 31 | 241 |  | 0.03 |  |  | 
86 ± 22 | 59.6 ± 15 |  | CC(C)=CCC/C(C)=C\Cn1cc(CC(C)(P(=O)([O-])[O-])P(=O)([O-])[O-])nn1.[Na+].[Na+].[Na+].[Na+] [Compound 20, Sodium (Z)-(1-(1-(3,7-dimethylocta-2,6-dien-1-yl)-1H-1,2,3-triazol-4-yl)propane-2,2-diyl)bis(phosphonate)] |  | more potent than the E isomer 21 | 693 |  | 0.025 |  | approximately 50 fold | 
125 ± 27 | 43.1 ± 2.98 | at least 3.5 fold | CC(C)=CCC/C(C)=C/Cn1cc(CC(C)(P(=O)([O-])[O-])P(=O)([O-])[O-])nn1.[Na+].[Na+].[Na+].[Na+] [Compound 21, Sodium (E)-(1-(1-(3,7-dimethylocta-2,6-dien-1-yl)-1H-1,2,3-triazol-4-yl)propane-2,2-diyl)bis(phosphonate)] |  |  | 345 |  | 0.02 |  |  | 
 |  |  | CC(C)=CCC/C(C)=C\CCn1cc(CC(C)(P(=O)(OCOC(=O)C(C)(C)C)OCOC(=O)C(C)(C)C)P(=O)(OCOC(=O)C(C)(C)C)OCOC(=O)C(C)(C)C)nn1 [Compound 25, (Z)-(((1-(1-(4,8-dimethylnona-3,7-dien-1-yl)-1H-1,2,3-triazol-4-yl)propane-2,2-diyl)bis(oxo-15-phosphanetriyl))tetrakis(oxy))tetrakis(methylene) tetrakis(2,2-dimethylpropanoate)] |  |  |  |  |  |  |  | approximately 10 fold

Compound | IC50 (Recombinant GGDPS; [3]) [nM] | IC50 (FDPS; read-out: FDPS IC50) [µM] | specificity (selectivity) for GGDPS over FDPS (Recombinant GGDPS) | IC50 (Recombinant GGDPS) [nM] | relative GGDPS inhibitory activity in enzymatic assays (comparison in words) (Recombinant GGDPS) | Selectivity for GGDPS to FDPS (Recombinant GGDPS) | IC50 (FDPS) [µM] | Cellular LEC (lowest effective concentration) (RPMI-8226 cells [1]) [µM] | relative cellular activity (comparison in words) (RPMI-8226 cells [1]) | cellular potency of Z-isomer relative to the E-isomer 21 (RPMI-8226 cells [2]; FIG. 5, RPMI-8226 cells) | improvement in cellular activity of POM-version versus corresponding salt 17 (RPMI-8226 cells [2]; FIG. 7, RPMI-8226 cells)
CCC(Cc1cn(C/C=C(\C)CCC=C(C)C)nn1)(P(=O)(O)O)P(=O)(O)O [Compound 28] | 5850 ± 1300 | 94.3 ± 20.6 |  |  |  | 16 |  | 2.5 | less potent than either the parent compound 31 |  | 
